# Experimental data from US12350259B2, “Methods of treating migraine” (Allergan Pharmaceuticals International Limited, priority 2021, dated 2025).
# “And” between values parts separate entries of the source, which are not always exact repeats. Equal values may be shown once.
# Assays:
# [1] = Atogepant-rifampin drug interaction study: atogepant plasma PK; format: in vivo, human; details: for Tmax: read-out: Tmax (median); for Vd/F: read-out: Vz/F
# Protocol: The study consisted of a Screening Visit, two study periods, an end-of-treatment (EOT) visit, and a follow-up visit. […] [table] […] Relative to the time that atogepant was administered, blood samples for atogepant plasma PK were to be collected at the following times: • Days 1 and 12: 0 hour (predose) and at 0.5, 1, 1.5, 2, 3, 4, 6, 8, 12, 16, 24, 36, and 48 hours post dose. • Day 7: 0 hour (predose) and at 0.5, 1, 1.5, 2, 3, 4, 6, 8, 12, 16, and 24 hours postdose
# P-gp = P-gp (Homo sapiens, UniProt P08183); assay: Transporter substrate; format: in vitro ADME
# P-gp, sequence (P08183 whole entry): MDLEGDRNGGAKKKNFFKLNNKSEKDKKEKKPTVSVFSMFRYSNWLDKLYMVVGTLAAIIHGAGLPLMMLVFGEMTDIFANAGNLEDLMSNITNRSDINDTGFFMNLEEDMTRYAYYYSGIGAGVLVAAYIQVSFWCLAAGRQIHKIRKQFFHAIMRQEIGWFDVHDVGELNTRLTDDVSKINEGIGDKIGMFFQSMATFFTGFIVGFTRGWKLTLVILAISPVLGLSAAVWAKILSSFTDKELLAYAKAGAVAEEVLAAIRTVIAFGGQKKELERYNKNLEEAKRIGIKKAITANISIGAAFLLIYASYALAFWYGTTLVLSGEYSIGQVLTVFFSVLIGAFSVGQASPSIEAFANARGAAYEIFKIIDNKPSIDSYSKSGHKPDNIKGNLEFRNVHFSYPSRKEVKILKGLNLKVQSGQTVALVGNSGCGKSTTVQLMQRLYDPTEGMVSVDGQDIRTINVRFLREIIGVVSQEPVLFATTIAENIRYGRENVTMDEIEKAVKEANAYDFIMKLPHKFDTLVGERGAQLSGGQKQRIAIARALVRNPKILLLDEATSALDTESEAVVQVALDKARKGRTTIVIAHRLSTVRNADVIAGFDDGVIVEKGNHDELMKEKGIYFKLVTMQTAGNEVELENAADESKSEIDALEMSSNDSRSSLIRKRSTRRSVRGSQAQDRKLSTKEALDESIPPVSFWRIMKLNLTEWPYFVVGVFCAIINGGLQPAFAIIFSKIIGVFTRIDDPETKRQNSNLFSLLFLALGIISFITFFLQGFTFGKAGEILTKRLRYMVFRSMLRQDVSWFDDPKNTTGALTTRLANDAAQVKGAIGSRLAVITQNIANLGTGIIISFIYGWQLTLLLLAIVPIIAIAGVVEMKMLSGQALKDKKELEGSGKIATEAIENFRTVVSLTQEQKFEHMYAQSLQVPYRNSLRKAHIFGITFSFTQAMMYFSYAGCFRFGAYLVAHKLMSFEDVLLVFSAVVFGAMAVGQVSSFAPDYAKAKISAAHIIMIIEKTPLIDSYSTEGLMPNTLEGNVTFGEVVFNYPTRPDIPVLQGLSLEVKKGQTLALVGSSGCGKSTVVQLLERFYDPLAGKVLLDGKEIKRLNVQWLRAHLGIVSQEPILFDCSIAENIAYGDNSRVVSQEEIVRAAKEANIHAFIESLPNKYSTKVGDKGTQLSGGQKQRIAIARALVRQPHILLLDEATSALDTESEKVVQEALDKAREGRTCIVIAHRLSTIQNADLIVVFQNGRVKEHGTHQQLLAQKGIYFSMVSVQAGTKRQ
# BCRP = BCRP (Homo sapiens, UniProt Q9UNQ0); assay: Transporter substrate; format: in vitro ADME
# BCRP, sequence (Q9UNQ0 whole entry): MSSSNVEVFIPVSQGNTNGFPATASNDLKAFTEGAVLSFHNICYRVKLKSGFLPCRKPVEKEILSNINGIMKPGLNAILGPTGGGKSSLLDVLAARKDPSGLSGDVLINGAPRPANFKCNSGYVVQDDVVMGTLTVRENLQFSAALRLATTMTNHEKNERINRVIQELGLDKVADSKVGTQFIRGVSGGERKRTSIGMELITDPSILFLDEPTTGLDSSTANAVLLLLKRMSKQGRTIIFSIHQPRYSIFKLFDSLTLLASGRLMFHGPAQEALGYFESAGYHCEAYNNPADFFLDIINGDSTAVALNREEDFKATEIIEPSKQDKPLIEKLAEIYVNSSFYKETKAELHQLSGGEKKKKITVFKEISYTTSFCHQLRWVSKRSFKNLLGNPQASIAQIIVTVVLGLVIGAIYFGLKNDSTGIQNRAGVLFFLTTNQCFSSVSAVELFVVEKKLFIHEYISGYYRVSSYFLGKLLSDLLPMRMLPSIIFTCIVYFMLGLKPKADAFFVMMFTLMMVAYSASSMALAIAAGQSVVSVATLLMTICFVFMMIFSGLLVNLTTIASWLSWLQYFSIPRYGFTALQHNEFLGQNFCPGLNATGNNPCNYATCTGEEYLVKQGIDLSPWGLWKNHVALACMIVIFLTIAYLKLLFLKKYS
# [2] = Atogepant-quinidine gluconate (P-gp inhibition) drug interaction study: atogepant PK; format: in vivo, human
# Protocol: A phase 1, single-center, single-sequence, open-label, 2-intervention, drug-drug interaction study was conducted to evaluate the effects of P-glycoprotein (P-gp) inhibition by quinidine gluconate on pharmacokinetics (PK) and safety of atogepant. In this study, healthy adults received atogepant 60 mg on day 1, quinidine gluconate 324 mg twice daily on Day 8, quinidine gluconate 648 mg twice-daily on days 9-12, and atogepant 60 mg co-administered on day 11. Plasma samples were collected on days 1 and 11.
# Atogepant PK parameters calculated were peak plasma concentration (Cmax); time to Cmax (tmax); and area under plasma concentration—time curve from time 0 to time t (AUC0-t) and infinity (AUC0-∞). PK parameters of atogepant co-administered with quinidine gluconate vs. atogepant administered alone were compared using a mixed-effects model. Statistical significance was achieved if 90% confidence intervals (Cis) for least squares geometric mean ratios (GMRs) of PK parameter values for atogepant co-administered with quinidine gluconate to atogepant administered alone were within 80%-125%. Safety assessments included clinical laboratory values, vital signs, electrocardiograms, and […] adverse events (TEAEs).
# OAT3 = OAT3 (Homo sapiens, UniProt Q8TCC7); assay: Transporter inhibition; format: in vitro ADME; details: clinically relevant concentrations
# OAT3, sequence (Q8TCC7 whole entry): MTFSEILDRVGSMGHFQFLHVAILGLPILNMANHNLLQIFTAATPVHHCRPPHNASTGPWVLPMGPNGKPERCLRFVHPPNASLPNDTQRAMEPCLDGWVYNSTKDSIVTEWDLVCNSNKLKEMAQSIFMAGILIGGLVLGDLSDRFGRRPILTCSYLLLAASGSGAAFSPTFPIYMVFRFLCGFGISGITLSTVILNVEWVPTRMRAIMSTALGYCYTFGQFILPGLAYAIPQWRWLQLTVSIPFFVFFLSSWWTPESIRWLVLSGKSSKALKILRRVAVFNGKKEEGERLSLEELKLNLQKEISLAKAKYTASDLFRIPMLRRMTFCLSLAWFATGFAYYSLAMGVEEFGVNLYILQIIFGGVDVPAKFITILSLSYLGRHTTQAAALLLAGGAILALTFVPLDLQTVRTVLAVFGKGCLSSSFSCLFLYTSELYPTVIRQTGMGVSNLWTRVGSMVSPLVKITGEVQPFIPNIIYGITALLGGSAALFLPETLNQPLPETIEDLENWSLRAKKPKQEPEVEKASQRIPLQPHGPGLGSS
# CYP3A4 = CYP3A4 (Homo sapiens, UniProt P08684); assay: In vitro CYP inhibition; format: in vitro ADME; details: clinically relevant concentrations
# CYP3A4, sequence (P08684 whole entry): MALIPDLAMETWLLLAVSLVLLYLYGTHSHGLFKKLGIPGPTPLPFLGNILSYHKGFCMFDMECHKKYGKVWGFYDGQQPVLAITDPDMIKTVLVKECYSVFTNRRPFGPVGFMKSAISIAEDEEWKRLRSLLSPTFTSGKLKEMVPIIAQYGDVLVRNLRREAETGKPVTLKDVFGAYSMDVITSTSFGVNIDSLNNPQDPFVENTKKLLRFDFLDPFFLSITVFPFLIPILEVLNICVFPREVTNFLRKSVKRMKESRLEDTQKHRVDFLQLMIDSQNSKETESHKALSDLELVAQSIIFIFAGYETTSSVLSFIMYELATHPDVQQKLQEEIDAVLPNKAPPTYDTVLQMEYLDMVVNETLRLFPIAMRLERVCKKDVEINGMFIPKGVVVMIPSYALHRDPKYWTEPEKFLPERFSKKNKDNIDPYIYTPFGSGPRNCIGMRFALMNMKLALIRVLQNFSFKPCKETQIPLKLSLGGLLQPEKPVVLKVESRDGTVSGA
# OATP1B3 = OATP1B3 (Homo sapiens, UniProt Q9NPD5); assay: Transporter substrate; format: in vitro ADME
# OATP1B3, sequence (Q9NPD5 whole entry): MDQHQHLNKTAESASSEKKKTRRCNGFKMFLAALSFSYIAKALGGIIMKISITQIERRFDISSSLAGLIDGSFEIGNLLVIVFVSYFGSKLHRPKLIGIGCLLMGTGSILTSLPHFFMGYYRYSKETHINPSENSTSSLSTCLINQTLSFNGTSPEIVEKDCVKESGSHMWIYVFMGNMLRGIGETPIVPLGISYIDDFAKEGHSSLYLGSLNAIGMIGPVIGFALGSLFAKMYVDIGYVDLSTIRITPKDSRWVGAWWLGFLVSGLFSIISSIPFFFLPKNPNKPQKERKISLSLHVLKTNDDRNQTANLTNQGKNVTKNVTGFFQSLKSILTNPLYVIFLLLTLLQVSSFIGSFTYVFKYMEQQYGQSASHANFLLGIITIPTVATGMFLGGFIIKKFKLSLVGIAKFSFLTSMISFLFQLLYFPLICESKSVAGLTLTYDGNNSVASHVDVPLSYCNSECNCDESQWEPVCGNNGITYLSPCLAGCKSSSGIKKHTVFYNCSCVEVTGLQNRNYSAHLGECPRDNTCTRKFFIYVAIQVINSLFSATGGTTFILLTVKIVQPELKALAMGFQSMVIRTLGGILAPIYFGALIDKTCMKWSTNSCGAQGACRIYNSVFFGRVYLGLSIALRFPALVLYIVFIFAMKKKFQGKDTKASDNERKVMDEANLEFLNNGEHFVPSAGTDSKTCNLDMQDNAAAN
# [3] = Atogepant-esomeprazole interaction study: safety; format: in vivo, human; details: atogepant 60 mg alone or with esomeprazole magnesium 40 mg
# Protocol: A phase 1, open-label, 2-intervention, single-sequence, nonrandomized, crossover, drug-drug interaction study was conducted to evaluate the effects of multiple-dose esomeprazole magnesium 40 mg on pharmacokinetics (PK) and safety of co-administered single-dose atogepant 60 mg in healthy adults.
# [4] = Atogepant-itraconazole drug interaction study: atogepant plasma PK; format: in vivo, human; details: for Tmax / AUC(0-inf) / AUC(0-t) / Cmax / half-life / Vd/F: both sexes, human, plasma, oral; for Vd/F: read-out: Vz/F
# Protocol: An open-label, single-sequence drug-drug interaction study was carried out to evaluate the effect of CYP3A4 inhibition by oral itraconazole (200 mg per day) on the pharmacokinetics of a single oral dose of atogepant (60 mg) in healthy subjects.
# This study was a single-center, single-sequence, open-label, 2-period PK drug-interaction study in 40 healthy male and female subjects aged 18 through 45 years.
# Subjects who satisfied the inclusion and exclusion criteria were assigned to a single fixed-treatment sequence in which they received Treatment A followed by Treatment B; there was a 7-day washout period between treatments. • Treatment A: Single oral 60 mg dose of atogepant (tablet) under fasted conditions on Day 1 • Treatment B • Days 8-14: Itraconazole 200 mg (tablet) orally once daily under fed conditions. • Day 15: Itraconazole 200 mg coadministered with atogepant 60 mg (tablet) under fasted conditions. • Days 16 to 17: Itraconazole 200 mg (tablet) once daily under fed conditions.
# Atogepant was administered in the fasted state in this study. Administration of itraconazole with food enhances its bioavailability. Accordingly, to maximize the CYP3A4 inhibition effect, itraconazole was administered with food on all the itraconazole treatment days except day 15. On day 15, both itraconazole and atogepant were administered under fasted state. Fasted state administration of itraconazole on Day 15 was unlikely to affect the CYP3A4 inhibition effect due to the attainment of steady state (of CYP3A4 activity) and long T1/2 of itraconazole (34 to 42 hours) following repeat dose administration.
# [5] = Treatment A: atogepant 60 mg alone
# [6] = Treatment B1 (single-dose rifampin) / Treatment A
# [7] = Treatment B2 (multi-dose rifampin) / Treatment A
# [8] = Treatment B2: atogepant 60 mg + multiple-dose rifampin 600 mg
# [9] = atogepant 60 mg + multiple-dose rifampin 600 mg (strong CYP3A4 inducer) vs atogepant alone
# [10] = atogepant 60 mg + single-dose rifampin 600 mg (OATP inhibitor) vs atogepant alone
# [11] = both sexes, human, plasma, oral, 60 mg, Treatment A: atogepant 60 mg alone
# [12] = both sexes, human, plasma, oral, Treatment B2: atogepant 60 mg + multiple-dose rifampin 600 mg
# [13] = co-administered with quinidine gluconate
# [14] = Treatment A: atogepant 60 mg single dose alone, fasted
# [15] = Treatment B: atogepant 60 mg + steady state itraconazole 200 mg
# [16] = atogepant + itraconazole vs atogepant alone
# [17] = co-administration with itraconazole (strong CYP3A4 inhibitor), healthy subjects
compound,measurement,setting,value
"C[C@@H]1[C@H](c2c(F)ccc(F)c2F)C[C@H](NC(=O)c2cnc3c(c2)C[C@@]2(C3)C(=O)Nc3ncccc32)C(=O)N1CC(F)(F)F [atogepant, (3′S)-N-[(3S,5S,6R)-6-methyl-2-oxo-1-(2,2,2-trifluoroethyl)-5-(2,3,6-trifluorophenyl)piperidin-3-yl]-2′-oxo-1′,2′,5,7-tetrahydrospiro[cyclopenta[b]pyridine-6,3′-pyrrolo[2,3-b]pyridine]-3-carboxamide]",CL/F,[1]; [5],22.8 L/h
same,λz,[1]; [5],0.0778 h⁻¹
same,AUC0-24 Ratio of Geometric Means Test/Ref,[1]; [6],284.84%
same,Cmax Ratio of Geometric Means Test/Ref,[1]; [6],222.65%
same,AUC0-t Ratio of Geometric Means Test/Ref,[1]; [7],40.46%
same,AUC0-∞ Ratio of Geometric Means Test/Ref,[1]; [7],38.85%
same,Cmax Ratio of Geometric Means Test/Ref,[1]; [7],70.06%
same,CL/F,[1]; [8],58.3 L/h and 58.3^b L/h
same,λz,[1]; [8],0.325^b 1/h
same,reduction of atogepant AUC0-t (AUC),[1]; [9],60%
same,reduction of atogepant Cmax,[1]; [9],30%
same,reduction of atogepant AUC0-∞,[1]; atogepant 60 mg + multiple-dose rifampin 600 mg vs atogepant alone,61%
same,increase in atogepant AUC0-24,[1]; [10],2.85 fold
same,increase in atogepant Cmax,[1]; [10],2.23 fold
same,half-life,[1]; [11],11.4 h
same,AUC(0-t),"[1]; both sexes, human, plasma, oral, 60 mg, Treatment A: atogepant 60 mg alone, read-out: AUC0-24",2870 ng·h/mL
same,AUC(0-t),"[1]; both sexes, human, plasma, oral, 60 mg, Treatment A: atogepant 60 mg alone, read-out: AUC0-24 Geometric LSM, Reference",2680 ng·h/mL
same,AUC(0-t),"[1]; both sexes, human, plasma, oral, 60 mg, Treatment A: atogepant 60 mg alone, read-out: AUC0-t",2960 ng·h/mL
same,AUC(0-t),"[1]; both sexes, human, plasma, oral, 60 mg, Treatment A: atogepant 60 mg alone, read-out: AUC0-t Geometric LSM, Reference",2770 ng·h/mL
same,AUC(0-inf),"[1]; both sexes, human, plasma, oral, 60 mg, Treatment A: atogepant 60 mg alone, read-out: AUC0-∞",3000 ng·h/mL
same,AUC(0-inf),"[1]; both sexes, human, plasma, oral, 60 mg, Treatment A: atogepant 60 mg alone, read-out: AUC0-∞ Geometric LSM, Reference",2810 ng·h/mL
same,Cmax,"[1]; both sexes, human, plasma, oral, 60 mg, Treatment A: atogepant 60 mg alone, read-out: Cmax",711 ng/mL
same,Cmax,"[1]; both sexes, human, plasma, oral, 60 mg, Treatment A: atogepant 60 mg alone, read-out: Cmax Geometric LSM, Reference",649 ng/mL
same,Tmax,[1]; [11],1.5 h
same,AUC(0-t),"[1]; both sexes, human, plasma, oral, Treatment B1: atogepant 60 mg + single-dose rifampin 600 mg, read-out: AUC0-24",8130 ng·h/mL
same,AUC(0-t),"[1]; both sexes, human, plasma, oral, Treatment B1: atogepant 60 mg + single-dose rifampin 600 mg, read-out: AUC0-24 Geometric LSM, Test",7630 ng·h/mL
same,Cmax,"[1]; both sexes, human, plasma, oral, Treatment B1: atogepant 60 mg + single-dose rifampin 600 mg, read-out: Cmax",1550 ng/mL
same,Cmax,"[1]; both sexes, human, plasma, oral, Treatment B1: atogepant 60 mg + single-dose rifampin 600 mg, read-out: Cmax Geometric LSM, Test",1440 ng/mL
same,Tmax,"[1]; both sexes, human, plasma, oral, Treatment B1: atogepant 60 mg + single-dose rifampin 600 mg",2 h
same,half-life,[1]; [12],2.39 h
same,AUC(0-t),"[1]; both sexes, human, plasma, oral, Treatment B2: atogepant 60 mg + multiple-dose rifampin 600 mg, read-out: AUC0-t",1180 ng·h/mL
same,AUC(0-t),"[1]; both sexes, human, plasma, oral, Treatment B2: atogepant 60 mg + multiple-dose rifampin 600 mg, read-out: AUC0-t Geometric LSM, Test",1120 ng·h/mL
same,AUC(0-inf),"[1]; both sexes, human, plasma, oral, Treatment B2: atogepant 60 mg + multiple-dose rifampin 600 mg, read-out: AUC0-∞",1130 ng·h/mL
same,AUC(0-inf),"[1]; both sexes, human, plasma, oral, Treatment B2: atogepant 60 mg + multiple-dose rifampin 600 mg, read-out: AUC0-∞ Geometric LSM, Test",1090 ng·h/mL
same,Cmax,"[1]; both sexes, human, plasma, oral, Treatment B2: atogepant 60 mg + multiple-dose rifampin 600 mg, read-out: Cmax",487 ng/mL
same,Cmax,"[1]; both sexes, human, plasma, oral, Treatment B2: atogepant 60 mg + multiple-dose rifampin 600 mg, read-out: Cmax Geometric LSM, Test",454 ng/mL
same,Tmax,[1]; [12],1.5 h
same,Vd/F,[1]; [12],197 L
same,reduction in mean apparent half-life,"[1]; both sexes, human, plasma, oral, atogepant + multiple dose rifampin vs atogepant alone, read-out: reduction of mean apparent T1/2 (converted)",~9 h
same,Vd/F,"[1]; both sexes, human, plasma, oral, Treatment A: atogepant 60 mg alone",390 L
same,substrate of P-gp,P-gp,substrate
same,substrate of BCRP,BCRP,substrate
same,AUC increase,[2]; [13],approximately 25%
same,Cmax increase,[2]; [13],4.4%
same,Tmax,"[2]; human, plasma, with or without quinidine gluconate, read-out: atogepant median tmax",1.5 h
same,inhibition of OAT3,OAT3,not an inhibitor
same,inhibition of CYP3A4,CYP3A4,not an inhibitor
same,substrate of OATP1B3,OATP1B3,substrate
same,safety and tolerability,[3],safe and tolerated
same,CL/F,[4]; [14],19.2 L/h
same,λz,[4]; [14],0.0825 h⁻¹
same,CL/F,[4]; [15],3.46 L/h
same,λz,[4]; [15],0.0496 h⁻¹
same,AUC0-t GM Ratio Treatment B/Treatment A,[4]; [16],543.26%
same,AUC0-∞ GM Ratio Treatment B/Treatment A,[4]; [16],550.78%
same,Cmax GM Ratio Treatment B/Treatment A,[4]; [16],215.11%
same,Tmax,"[4]; 60 mg, Treatment A: atogepant 60 mg single dose alone, fasted, read-out: Tmax (median)",2 h
same,Tmax,"[4]; atogepant + itraconazole vs atogepant alone, read-out: Tmax difference of medians",1 h
same,AUC(0-inf),[4]; [14],3470 ng·h/mL
same,AUC(0-t),[4]; [14],3440 ng·h/mL
same,Cmax,[4]; [14],740 ng/mL
same,half-life,[4]; [14],11.2 h
same,Vd/F,[4]; [14],292 L
same,AUC(0-inf),[4]; [15],18900 ng·h/mL
same,AUC(0-t),[4]; [15],18500 ng·h/mL
same,Cmax,[4]; [15],1580 ng/mL
same,half-life,[4]; [15],14.9 h
same,Tmax,"[4]; Treatment B: atogepant 60 mg + steady state itraconazole 200 mg, read-out: Tmax (median)",3 h
same,Vd/F,[4]; [15],73.4 L
same,increase in atogepant AUC,[4]; [17],5.5 fold
same,increase in atogepant Cmax,[4]; [17],2.15 fold
